According to patent publication US20040033982A1, “Viral inhibition by n-docosanol” (priority 2001, published 2004):
“Also recorded” adds a separate entry of the source. Where two headings read alike, the source gives them in different places.

Key:
[1] = test system: acyclovir-resistant HSV-2; assay: Plaque formation by acyclovir-resistant HSV-2 in Vero cells; assay type: cell-based; details: FIG. 7, Panel B
Experimental: FIG. 7 depicts data showing that n-docosanol inhibits acyclovir-resistant HSV-2. Vero cells were cultured in 35-mm wells (6×10^5 cells per well) in medium alone (=none) or in the presence of the indicated concentration of acyclovir, n-docosanol-Pluronic F-68 suspension or control suspension (Pluronic F-68 only). The cultures were inoculated 24 hours later with 150 PFU of either wild-type HSV-2 or an acyclovir-resistant laboratory isolate from the wild-type HSV-2 that was plaque purified and passaged in 20 μg/ml acyclovir 44 hours later, the plates were incubated, fixed, stained, and scored for numbers of plaques. The data presented are means of plaques scored from duplicate cultures. The percent inhibition observed in cultures treated with acyclovir or n-docosanol relative to untreated control cultures is denoted in parentheses.

[2] = test system: lipid-enveloped viruses; assay: Spectrum of antiviral activity against lipid-enveloped viruses in vitro; assay type: cell-based
[3] = test system: HSV; assay: Direct viricidal activity (virus mixed with suspension, infectivity recovered)
Experimental: Extensive studies designed to delineate the mechanism by which n-docosanol exerts its antiviral activity were conducted. The collective implications of the results of the studies are that the compound appears to interfere with one or more of the common pathways of viral entry into the cell and migration to the nucleus of infected target cells.
Instead, the drug apparently modifies the target cell in a manner that inhibits viral replication.

[4] = test system: HSV-2; assay: Fusion of octadecyl rhodamine B chloride-labeled HSV-2 with NC-37 human B cells; assay type: cell-based
Experimental: NC-37 human B cells were inoculated in the presence of 15 mM n-docosanol, the corresponding concentration of Tetronic 908 (0.1 mM) or without addition. Cells were harvested and R-18-labeled HSV-2 was added to aliquots in the presence of compounds at their original concentration. Following incubation at 37° C. for the times indicated, cells were fixed and fluorescence intensity determined by FACScan.
The HSV envelope was labeled with octadecyl rhodamine B chloride (R-18). NC-37 human B cells were inoculated at 2.5×10^5 cells/ml, 25 ml per flask. Cells were incubated overnight at 37° C. with no addition or in the presence of 15 mM n-docosanol or the corresponding concentration of Tetronic 908. […] Fluorescence intensity was measured by using a fluorescence-activated cell sorter (FACScan; Becton-Dickinson).
Because of the selectivity of the inhibitory effects of n-docosanol for lipid-enveloped fusion-dependent viruses and the absence of viricidal effects, we considered the possibility that n-docosanol may inhibit viral entry by altering target cell membranes to prevent effective fusion of viral particles with target cells. To investigate the effects of n-docosanol on HSV fusion with cellular membranes we conducted fluorescence dequenching assays. […] This relieves fluorescence self-quenching and causes an increase in signal intensity.

[5] = test system: HSV-2 (333); assay: Entry of HSV-2 (333) into CHO-IEβ8 cells (beta-galactosidase, OD600); assay type: cell-based; details: for inhibition at 30000 µM: Human alphaherpesvirus 2, 30 mM
Experimental: CHO-IEβ8 cells were seeded into 24-well plates. After cell attachment, heparin, n-docosanol-vehicle, vehicle alone, or no agent (control) was added. Five to six hours after infection, the cells were processed, X-gal was added, and the absorbance at 600 nm was determined.
Twenty-four hours before infection, cultured cells were seeded into 24-well (16-mm) plates at 2.5×10^6 cells/well in 0.5 ml cDMEM supplemented with 10% fetal bovine serum (FES). After cell attachment (4-6 h later) heparin, n-docosanol-surfactant, or surfactant alone was added to the cells in 0.5 ml DMEM/10% FES. The agents were dissolved in the medium at two times the desired final concentration. For infection, 0.7 ml of medium was removed from each well and 25 μl of virus suspension was added to the remaining 0.3 ml to give a virus dose of at least 20 p.f.u./cell The plates were rocked at 37° C. for 3 h and then put in a 37° C. CO2 incubator for another 2-3 h.
At 5-6 h after infection, the cells were fixed with PES containing 2% formaldehyde and 0.2% glutaraldehyde, washed, then permeabilized with 0.02% NP-40, 0.01% deoxycholate and 2 mM MgCl2. After washing again, 5-bromo-4-chloro-3indolyl-β-galactopyranoside (X-gal) was added for development of blue product. The substrate was removed and replaced with 50% glycerol. Plates were photographed. To quantify the amount of color in each well the glycerol was removed from all wells that were then washed 3× with distilled H2O. DMSO (0.6 ml) was added to solubilize the dye and, after transferring 100 μl of each sample well from the 24-well plate to a 96-well plate, the OD600 was recorded using a 96-well plate reader.
n-Docosanol inhibits HSV-2(333) infectivity of CHO-IEβ8 cells. To further narrow the point of inhibition of viral entry in n-docosanol-treated cells, the effects of the drug on entry of HSV-2 into CHO-IEβ8 cells selected by transfection of CHO cells with a plasmid carrying a Pur selectable marker and lacZ under control of the HSV-1 ICP4 promoter was investigated. In this cell line, β-gal expression is induced upon entry of HSV virion proteins into the cell, an event which occurs immediately upon viral entry into the cellular cytoplasm and which is not dependent on virion transport to the nucleus.

[6] = test system: HSV-1 or HSV-2; assay: Inhibition of HSV production and plaque formation in Vero cells; assay type: cell-based
Experimental: Cultured cells were placed in 35-mm wells (2 ml; 3×10^5 cells/ml) in DMEM containing L-glucamine, pennstrep (cDMEM) and supplemented with 5% FCS. n-Docosanol or the corresponding control vehicle (lacking n-docosanol) was added at the outset of the culture. All cultures were then inoculated with 175 p.f.u. of HSV-1 or HSV-2.
The cultures were incubated for an additional 42-44 h, washed once with fresh medium, stained and fixed (the staining/fixative consists of 1.25 mg/ml of carbol-fuchsin plus 2.5 mg/ml of methylene blue in methanol) and then scored for HSV-induced plaques using a dissecting microscope (10× magnification). Thc data are averages of duplicate cultures, which varied by no more than 5-10%.

[7] = Toxic, mutagenic, teratogenic properties

CCCCCCCCCCCCCCCCCCCCCCO [n-docosanol]
inhibition of plaque formation [1]: inhibited
HUMAN VIRUSES shown to be susceptible [2]: Respiratory Syncytial Virus; also recorded: Cytomegalovirus; also recorded: Influenza A; also recorded: HIV-1; also recorded: Herpes Simplex-1 & 2; also recorded: Varicella Zoster Virus; also recorded: Human Herpesvirus-6
MURINE VIRUSES shown to be susceptible [2]: Cytomegalovirus; also recorded: Friend Leukemic Virus; also recorded: LP-BM5 Virus
direct viricidal activity [3]: no direct viricidal activity; also recorded: does not directly inactivate virus
inhibition at 15000 µM ([4]; Human alphaherpesvirus 2, NC-37, read-out: inhibition of fluorescent response compared to Tetronic control): ≤ 76%
inhibition at 15000 µM ([4]; Human alphaherpesvirus 2, NC-37, read-out: inhibition of relative increase in fluorescence intensity compared to cells receiving no treatment): ~50%
maximal observed inhibition in comparison to untreated cells [5]: approximately 75%
reduction in the expression of β-galactosidase [5]: ≤ 80%
inhibition at 30000 µM ([5]; read-out: inhibition of color production compared to Tetronic 908-treated cells): 55%
inhibition at 30000 µM ([5]; read-out: inhibition of color production compared to untreated cells): 40%
ID50 for inhibition of HSV production [6]: 4 mM
ID50 for inhibition of plaque formation [6]: 9 mM
toxic, mutagenic, or teratogenic properties [7]: lacks any toxic, mutagenic, or teratogenic properties
